Laboratory results: US20170029355A1, “LABILE ESTERS OF AGROCHEMICALS FOR CONTROLLED RELEASE AND REDUCTION OF OFF-SITE MOVEMENT” (Monsanto Technology LLC, priority 2011, published 2017)
One block for each compound: values may come before it.

Experiments:
[1] = tested on: three broadleaf weeds: velvetleaf, morning glory, and hemp sesbania; experiment: Field testing of Example 40, overall post-emergent activity in words; type: in vivo; conditions: 280 and 560 g dicamba acid equivalent per hectare
Protocol: (§1) Three dicamba esters, 30a, 32a, and 36a, were formulated as emulsifiable concentrates for field testing. All surfactants are commercial materials from Stepan.
(§2) The formulations were tested in the field. Locations and timing were identical for the three esters, but differed slightly for the diglycolamine control. The esters were compared to the diglycolamine salt of dicamba (CLARITY™) for post-emergent control of three broadleaf weeds: velvetleaf, morning glory, and hemp sesbania. Rates of 280 and 560 g dicamba acid equivalent per hectare were used.

broadleaf weeds = experiment: Control of broadleaf weeds by ester concentrates (statements of the description); type: in vivo; conditions: emulsifiable and suspension concentrates; Sesbania macrocarpa, morning glory, velvetleaf, Palmer amaranth, fat hen, sicklepod
[2] = In vitro photo-release and hydrolytic release of dicamba in an aqueous medium (Example 35); type: physicochemical; conditions: 0.01 mM ester, 35° C.
Protocol: This Example describes the determination of photo-lability and hydrolytic lability of dicamba esters in an aqueous medium. 1 mM solutions of the esters were prepared in acetonitrile (or […] solutions of dicamba diesters). The solutions were then diluted with deionized water to a concentration of 0.01 mM (or 0.005 mM for diesters). The solutions were then transferred to quartz tubes and amber bottles and held in a growth chamber by the procedure of Example 26. A 14-hour day was generally used at a constant temperature of 35° C. Hydrolytic activity was assessed by measuring the increase in dicamba concentration after day zero in the amber (dark) bottles. […] Photolysis manifested itself as increased conversion in the quartz tubes compared to the dark control.

velvetleaf [3] = experiment: Greenhouse post-emergent control of velvetleaf by emulsifiable concentrates (Example 37); type: in vivo; conditions: greenhouse, Example 37
Summary of the method: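 Photo-labile dicamba ester emulsifiable concentrates sprayed post-emergence in the greenhouse on velvetleaf 10-15 cm tall at 140, 280, 420 and 560 g dicamba equivalent per hectare. Percent control scored three weeks after treatment.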

velvetleaf [4] = experiment: Field testing of emulsifiable concentrates, post-emergent control (Example 40); type: in vivo; conditions: for % control 19 days after treatment, 280 g/ha, Velvetleaf: 280 g dicamba acid equivalent per hectare; for % control 19 days after treatment, 560 g/ha, Velvetleaf: 560 g dicamba acid equivalent per hectare
Protocol: as §1, §2

morning glory [5] = experiment: as above; type: in vivo; conditions: for % control 19 days after treatment, 280 g/ha, Morning glory: 280 g dicamba acid equivalent per hectare; for % control 19 days after treatment, 560 g/ha, Morning glory: 560 g dicamba acid equivalent per hectare
Protocol: as §1, §2

hemp sesbania [6] = experiment: as above; type: in vivo; conditions: for % control 19 days after treatment, 280 g/ha, Hemp sesbania: 280 g dicamba acid equivalent per hectare; for % control 19 days after treatment, 560 g/ha, Hemp sesbania: 560 g dicamba acid equivalent per hectare
Protocol: as §1, §2

velvetleaf [7] = experiment: Greenhouse post-emergent control of velvetleaf by emulsifiable concentrates (Example 29); type: in vivo; conditions: three weeks after treatment
Protocol: (§3) The efficacy of some photo-labile ester formulations from Example 28 for post-emergent control of velvetleaf was tested in the greenhouse. All formulations were tested at rates of 140, 280, 420, and 560 g dicamba equivalent per hectare rates and compared to the diglycolamine salt of dicamba (CLARITY®) at the same rates and untreated control plants. The velvetleaf plants were 10-15 cm in height at the time of spraying. Percent control was evaluated three weeks after treatment.

velvetleaf [8] = experiment: Greenhouse post-emergent control of velvetleaf by emulsifiable concentrates (Example 30); type: in vivo
Protocol: as §3
The methodology of Example 29 was used to evaluate the efficacy of several photo-labile esters of dicamba for post-emergent control of velvetleaf as emulsifiable concentrate formulations described in Example 28.

[9] = tested on: glyphosate-tolerant, dicamba-sensitive soy plants; experiment: Humidome volatility injury to dicamba-sensitive plants (Example 31); conditions: in vivo
Description: In this case, the diglycolamine salt of dicamba (CLARITY®) was used for comparison.
Dicamba photo-labile ester formulations from Example 28 were mixed with a commercial glyphosate formulation (ROUNDUP POWERMAX®) and diluted to provide a solution with a 0.5% dicamba equivalent concentrate of the ester (or dicamba diglycolamine salt) and 1.5% concentrate of glyphosate. The mixtures were sprayed at a 10 gallon per acre (93.5 liters per hectare) rate on soil in a plastic container (“humidome”) with a transparent lid. One soil container was sprayed with water as a control. Four glyphosate-tolerant, dicamba-sensitive soy plants between V2 and V3 stage were immediately placed on the sprayed soil and the domes attached to the trays with binder clips. The soy plants were in pots placed directly on the soil but with aluminum foil wrapped around the bottom to prevent uptake of dicamba or dicamba esters through the roots.
The closed containers were held for 24 hours in a growth chamber which was maintained at 35° C. with 40% relative humidity. The plants were then removed and grown in a greenhouse for three weeks. At this time plant injury and growth stage were assessed compared to the control treated with water only.

soybeans = experiment: Humidome volatility injury, ester 32a emulsifiable concentrate (Example 32); conditions: in vivo
Description: […] The mixtures were sprayed at a 10 gallon per acre (93.5 liters per hectare) rate on soil in a plastic container (“humidome”) with a transparent lid. One soil container was sprayed with water as a control. Four glyphosate-tolerant, dicamba-sensitive soy plants between V2 and V3 stage were immediately placed on the sprayed soil and the domes attached to the trays with binder clips. The soy plants were in pots placed directly on the soil but with aluminum foil wrapped around the bottom to prevent uptake of dicamba or dicamba esters through the roots.
The closed containers were held for 24 hours in a growth chamber which was maintained at 35° C. with 40% relative humidity. […] At this time plant injury and growth stage were assessed compared to the control treated with water only.

[10] = Field dicamba volatility, airborne dicamba collected by air samplers (Example 34); type: physicochemical; conditions: field plot, 0.5 lb/acre dicamba a.e. with ROUNDUP WEATHERMAX, airborne dicamba collected over 24 hours, maximum 86° F.
velvetleaf [11] = experiment: Field testing of emulsifiable concentrates, post-emergent control (Example 38); type: in vivo; conditions: 11 or 21 days after treatment
Description: (§4) Four dicamba esters, 1a, 2, 9, and 13a, were formulated as emulsifiable concentrates for field testing. All formulations contained 5% each of a alkylbenzene sulfonate calcium salt (Huntsman NANSA EVM 62/H or Akzo Nobel WITCONATE P-1220 EH) and castor oil ethoxylate (Huntsman SURFONIC CO-54) as the emulsifiers and Aromatic 200 (Exxon) or monochlorobenzene (MCB) as the solvent.
(§5) The esters were compared to the diglycolamine salt of dicamba (CLARITY™) for post-emergent control of three broadleaf weeds: velvetleaf, morning glory, and hemp sesbania. Rates of 280 and 420 g dicamba acid equivalent per hectare were used. […] Evaluations were conducted at 11 or 21 days after treatment. Locations and timing were identical for all formulations tested.

morning glory [12] = experiment: as above; type: in vivo; conditions: 11 or 21 days after treatment
Description: as §4, §5

hemp sesbania [13] = experiment: as above; type: in vivo; conditions: 11 or 21 days after treatment
Description: as §4, §5

Euphorbia species = experiment: Field testing for post-emergent activity in the Southern Hemisphere (Example 39); type: in vivo; conditions: 9 as suspension concentrate, other esters as emulsifiable concentrates
Protocol: The primary weeds were Euphorbia species. Ester 9 was tested as a suspension concentrate using the formulation of Example 33 The other esters were tested as emulsifiable concentrates having the formulations shown in the table below. Akzo Nobel SPONTO EC 334 and SPONTO EC 336 along with SURFONIC CO-54 and […] (Huntsman) were used as emulsifiers and Aromatic 200 (A 200; Exxon) was used as the solvent. […] The diglycolamine salt of dicamba (CLARITYTM) was used as a comparator.

[14] = 280 g dicamba acid equivalent per hectare
[15] = 420 g dicamba acid equivalent per hectare

Conversion to Dicamba, Dark, Day 0 ([2]; amber (dark) bottle, Day 0): 6% | Conversion to Dicamba, Dark, Day 3 ([2]; amber (dark) bottle, Day 3): 5% | Conversion to Dicamba, Dark, Day 14 ([2]; amber (dark) bottle, Day 14): 17% | Conversion to Dicamba, Dark, Day 21 ([2]; amber (dark) bottle, Day 21): 17% | Conversion to Dicamba, Dark, Day 28 ([2]; amber (dark) bottle, Day 28): 19% | Conversion to Dicamba, Light, Day 0 ([2]; quartz tube, 14-hour day, Day 0): 6% | Conversion to Dicamba, Light, Day 3 ([2]; quartz tube, 14-hour day, Day 3): 14% | Conversion to Dicamba, Light, Day 14 ([2]; quartz tube, 14-hour day, Day 14): 23% | Conversion to Dicamba, Light, Day 21 ([2]; quartz tube, 14-hour day, Day 21): 29% | Conversion to Dicamba, Light, Day 28 ([2]; quartz tube, 14-hour day, Day 28): 36%
SMILES: COc1ccc(OC(=O)c2c(Cl)ccc(Cl)c2OC)cc1 [Ester 30a, 4-methoxyphenyl ester of dicamba]
post-emergent activity compared with the dicamba salt, in words [1]: less efficacious | control of a number of broadleaf weeds in field testing, in words (broadleaf weeds): proven effective | pest or weed control at 140 g/ha (velvetleaf [3]; Abutilon theophrasti, post-emergence, 504 h, 140 g/ha, read-out: % Control of velvetleaf, 140 g/ha): 19.2% | pest or weed control at 280 g/ha (velvetleaf [3]; Abutilon theophrasti, post-emergence, 504 h, 280 g/ha, read-out: % Control of velvetleaf, 280 g/ha): 12.5% | pest or weed control at 420 g/ha (velvetleaf [3]; Abutilon theophrasti, post-emergence, 504 h, 420 g/ha, read-out: % Control of velvetleaf, 420 g/ha): 18.3% | pest or weed control at 560 g/ha (velvetleaf [3]; Abutilon theophrasti, post-emergence, 504 h, 560 g/ha, read-out: % Control of velvetleaf, 560 g/ha): 15% | % control 19 days after treatment, 280 g/ha, Velvetleaf (velvetleaf [4]): 56 ± 25% | % control 19 days after treatment, 560 g/ha, Velvetleaf (velvetleaf [4]): 65 ± 25% | % control 19 days after treatment, 280 g/ha, Morning glory (morning glory [5]): 79 ± 7% | % control 19 days after treatment, 560 g/ha, Morning glory (morning glory [5]): 78 ± 10% | % control 19 days after treatment, 280 g/ha, Hemp sesbania (hemp sesbania [6]): 50 ± 20% | % control 19 days after treatment, 560 g/ha, Hemp sesbania (hemp sesbania [6]): 67 ± 13%

average dicamba level from the five air samplers [10]: 11.1 ng/m^3
SMILES: COc1c(Cl)ccc(Cl)c1C(=O)O.NCCOCCO [Diglycolamine salt, diglycolamine salt of dicamba, reference compound]
% Control of velvetleaf, 140 g/ha (velvetleaf [7]; 140 g dicamba equivalent per hectare): 44% | % Control of velvetleaf, 280 g/ha (velvetleaf [7]; 280 g dicamba equivalent per hectare): 63% | % Control of velvetleaf, 420 g/ha (velvetleaf [7]; 420 g dicamba equivalent per hectare): 68% | % Control of velvetleaf, 560 g/ha (velvetleaf [7]; 560 g dicamba equivalent per hectare): 83% | % Control of velvetleaf, 140 g/ha (velvetleaf [8]; 140 g/ha): 54% | % Control of velvetleaf, 280 g/ha (velvetleaf [8]; 280 g/ha): 86% | % Control of velvetleaf, 420 g/ha (velvetleaf [8]; 420 g/ha): 96% | % Control of velvetleaf, 560 g/ha (velvetleaf [8]; 560 g/ha): 96% | Growth Stage [9]: 6 | average injury to soybeans (soybeans): 60% | % Control of velvetleaf, 140 g/ha (velvetleaf [3]; 140 g/ha): 43.3% | % Control of velvetleaf, 280 g/ha (velvetleaf [3]; 280 g/ha): 65.8% | % Control of velvetleaf, 420 g/ha (velvetleaf [3]; 420 g/ha): 87.5% | % Control of velvetleaf, 560 g/ha (velvetleaf [3]; 560 g/ha): 90.0% | % control, 280 g/ha, Velvetleaf (velvetleaf [11]; [14]): 87% | % control, 420 g/ha, Velvetleaf (velvetleaf [11]; [15]): 91% | % control, 280 g/ha, Morning glory (morning glory [12]; [14]): 100% | % control, 420 g/ha, Morning glory (morning glory [12]; [15]): 100% | % control, 280 g/ha, Hemp sesbania (hemp sesbania [13]; [14]): 81% | % control, 420 g/ha, Hemp sesbania (hemp sesbania [13]; [15]): 88% | % control, 0.25 lb/ac (0.28 kg/hectare) (Euphorbia species; 0.25 lb dicamba a.e. per acre): 53% | % control, 0.50 lb/ac (0.56 kg/hectare) (Euphorbia species; 0.50 lb dicamba a.e. per acre): 70% | % control 19 days after treatment, 280 g/ha, Velvetleaf (velvetleaf [4]): 78 ± 10% | % control 19 days after treatment, 560 g/ha, Velvetleaf (velvetleaf [4]): 91 ± 7% | % control 19 days after treatment, 280 g/ha, Morning glory (morning glory [5]): 89 ± 11% | % control 19 days after treatment, 560 g/ha, Morning glory (morning glory [5]): 94 ± 12% | % control 19 days after treatment, 280 g/ha, Hemp sesbania (hemp sesbania [6]): 89 ± 5% | % control 19 days after treatment, 560 g/ha, Hemp sesbania (hemp sesbania [6]): 96 ± 2%
